Molecules are shown by their SMILES.

In test [1] the test system is doxorubicin-induced cardiotoxicity. As to the kind of experiment: Model of doxorubicin-induced cardiotoxicity. It counts as in vivo, male mice. The following applies: 5 days after DOX 20 mg/kg; for survival rate: 180 mg/kg i.p. once daily; for end-systolic LV volume: vs DOX vehicle group; for heart weight: vs DOX vehicle mice. As to the method:
The aim of the present study was to evaluate, the effects of i.p administration of Nicotinamide Mononucleotide (NMN), compound I-B and compound I-C at 180 mg/kg in the progression of a cardiotoxicity induced by doxorubicin.
76 male mice, 8-week-old at the arrival were obtained from Janvier Labs, Le Genest St Isle, 53941 St Berthevin, France. Each animal was identified with electronic chip. Each cage was numbered. Based on the animal number/cage and number of cages, the animals were assigned of unique number with the name of group and mice number.
The powder of NMN, compounds I-B and I-C (180 mg/kg) were dissolved in vehicle (the solution is used at room temperature for maximum 1 day). A fresh sample for each administration was prepared every day except the week-end (the solution is prepared on Saturday and is used on Saturday and Sunday).
Cardiotoxicity was induced by a single intraperitoneal injection of doxorubicin (DOX) at 20 mg/kg. Doxorubicin was prepared at 2 mg/mL and volume of administration was 10 mL/Kg.
At D0, mice were injected with DOX (20 mg/kg) by intraperitoneal route.
The treatment with NMN, compounds I-B and I-C was initiated from 5 days before DOX injection, once per day, from D-5 to DO.
Mice were i.p treated with NMN, compounds I-B and I-C 30 min before DOX injection.
Mice were i.p treated with NMN, compounds I-B and I-C for the duration of the experiment (D0 to D5) once per day. Last injection occurred 24 hours before sacrifice.
The bodyweight was assessed at inclusion and at D5.
The survival rate was recorded every day until the end of the experiment (D5).
Retro-orbital blood collection was performed at the inclusion and at 1 and 5 days after the […] with DOX to assess biomarker (LDH and creatinine).
Echocardiography (ECG) was performed 5 days after doxorubicin injection in anesthetized (isoflurane 1.5-2%) animals with non-invasive two-dimensional echocardiography (VF16-5 probe, Siemens, Acuson NX3 Elite). After removing hairs on the chest, numeric images of the heart were obtained in both parasternal long-axis and short axis views.
The following cardiac function were assessed during ECG: • Left ventricle (LV) end-systolic and end-diastolic inner diameter; • LV end-systolic and end-diastolic volume, • Fractionnal shortening; • Ejection fraction; • Heart Rate; and • Anterior and posterior wall thickness in Diastole and in systole.

The test system of test [2] is CYP-induced visceral pain. The test is described as follows: Acute cyclophosphamide (CYP)-induced cystitis model, von Frey mechanical stimulation. In kind it is in vivo, female Sprague-Dawley rats. Conditions: 500 mg/kg p.o. As to the method: The aim of the present study was to evaluate, the effects of oral administration of Nicotinamide Mono-Nucleoside (NMN), Pro-drug A (alpha-NMN) and Pro-drug B (compound I-A), compounds I-B and I-C at 500 mg/kg on visceral pain response in the acute cyclophosphamide (CYP)-induced cystitis model in female Sprague-Dawley rats.
Female Sprague-Dawley rats, 7 weeks at delivery
• NMN: 500 mg/kg • Pro-drug A: 500 mg/kg • Pro-drug B (compound I-A): 500 mg/kg • Compound I-B: 500 mg/kg • Compound I-C; 500 mg/kg • Vehicle: distilled water • Route of administration: per os (p.o.), 5 mL/kg • Frequency of administration: once at DO, 15 min prior CYP intraperitoneal (i.p.) injection.
=>lowered threshold=allodynia • Nociceptive score: % of the maximal response (total=9 for 3 pooled applications) for each filament

The subject of a further test is SS RBCs. The test is described as follows: RBC sickling under hypoxia ex vivo (sickle cell disease mouse model). It counts as in vivo, Townes S/S mice. Conditions: 1% O2 for 30 minutes ex vivo. As to the method: The aim of the present study was to evaluate, the effects of i.p. administration of Nicotinamide Mononucleotide (NMN), compound I-B and compound I-C at 185 mg/kg as modulator of red blood cell sickling and their potential role in therapy for sickle cell disease on a mouse model of SCD.
Townes S/S mice on a 129/B6 mixed genetic background.
The powder of NMN, compounds I-B and I-C (185 mg/kg) were dissolved in vehicle (the solution was used at room temperature for maximum 1 day). A fresh sample for each administration was prepared every day except the week-end (the solution is prepared on Saturday and is used on Saturday and Sunday).
In Townes S/S mice, mouse alpha- and beta-globin gene loci are deleted and replaced by human alpha- and beta-globins. When carrying two copies of the beta S allele, mice develop a human sickle cell disease phenotype with sickle-shaped red blood cells seen in blood smears.
Mice were i.p treated with NMN, compounds I-B and I-C during all the experiment (D0 to D15) once per day. Last injection occurred 24 hours before sacrifice.
Retro-orbital blood collection was performed at the inclusion D0 and at D5, D10 and D15 through facial vein bleeding.
Red blood cells collected were submitted to hypoxia (1% O2) for 30 minutes to induce sickling. Percentage of sickle cells was then assessed.
SS RBCs from treated mice were collected at D0, D5, D10 and D15 and were submitted to hypoxia for 30 minutes in a hypoxic chamber (1% O2). Percentage of sickling RBCs was then assessed for each time point with compounds NMN, I-B and I-C.

Where [3] appears, read: after 15 days treatment 185 mg/kg i.p. once daily.

Consider `NC(=O)c1ccc[n+]([C@@H]2O[C@H](COP(=O)([O-])OP(=O)([O-])OC[C@H]3O[C@H]([n+]4cccc(C(N)=O)c4)[C@H](O)[C@@H]3O)[C@@H](O)[C@H]2O)c1` [Compound I-B], for which the survival rate in test [1] is 98 % of survival. Also, in test [1] (180 mg/kg i.p.), the ejection fraction is reported as 60.0±0.6%, the fractional shortening result is “around 38%”, the heart rate stood at 470.1±18.8 bpm and the “end-systolic LV volume” value is recorded as “reduced”. For the same compound, the heart weight entry in test [1] (180 mg/kg i.p.) is on record as “tended to increase heart weight”. Also, in test [1] (180 mg/kg i.p., vs DOX vehicle), the “LV anterior and posterior wall thickness in systole” value is reported as “non-significant increases”; the “body weight loss after doxorubicin administration” value (shortened to “body weight loss”) is “significantly decreased”. For the same compound, the “nociceptive scores (CYP-induced visceral pain) vs vehicle” value (“nociceptive scores … vs vehicle” below) in test [2] (+2 h after CYP) is “significant decrease”. Moreover, the “nociceptive scores … vs vehicle” value in test [2] (+4 h after CYP) is “significant decrease”. Also, in test [2] (+6 h after CYP), the “nociceptive scores … vs vehicle” value was “significant decrease” and the “nociceptive threshold (CYP-induced allodynia) vs vehicle” value (from here on “nociceptive threshold … vs vehicle”) is “significant increase”. In addition, in the test with SS RBCs (D0 (start of treatment)), the “percentage of sickling cells” value turned out to be 32%. The “percentage of sickling cells” value in the test on SS RBCs (setting [3]) is given as “less than 15%”.
Turning to `NC(=O)c1ccc[n+]([C@H]2O[C@H](COP(=O)([O-])OP(=O)([O-])OC[C@H]3O[C@H]([n+]4cccc(C(N)=O)c4)[C@H](O)[C@@H]3O)[C@@H](O)[C@H]2O)c1` [Compound I-C], in test [1], the survival rate is 100 % of survival. In addition, in test [1] (180 mg/kg i.p.), the ejection fraction came to 58.2±0.5%, the fractional shortening result is “around 38%”, the “end-systolic LV volume” value was “reduced” and the heart weight result was “tended to increase heart weight”. Besides, in test [1] (180 mg/kg i.p., vs DOX vehicle), the “LV anterior and posterior wall thickness in systole” value is “non-significant increases”; the “body weight loss” value was “significantly decreased”; the “heart rate (change in words)” value is “increased heart rates”. In test [2] (+2 h after CYP), the “nociceptive scores … vs vehicle” value is given as “significant decrease”. Also, the “nociceptive scores … vs vehicle” value in test [2] (+4 h after CYP) was “significant decrease”. Also, in test [2] (+6 h after CYP), the “nociceptive scores … vs vehicle” value is “significant decrease” and the “nociceptive threshold … vs vehicle” value is given as “significant increase”. The “percentage of sickling cells” value with SS RBCs (D0 (start of treatment)) was 31%. Besides, the “percentage of sickling cells” value in the test with SS RBCs (setting [3]) is listed as 20%.
With `NC(=O)c1ccc[n+]([C@@H]2O[C@H](COP(=O)([O-])O)[C@@H](O)[C@H]2O)c1` [NMN, Nicotinamide Mononucleotide, reference compound], in test [1], the survival rate is given as 78 % of survival. Further, in test [1] (180 mg/kg i.p.), the ejection fraction is listed as 56.9±0.6%, the fractional shortening result is “around 38%” and the “end-systolic LV volume” value is listed as “reduced”. For the same compound, in test [1] (180 mg/kg i.p., vs DOX vehicle), the “LV anterior and posterior wall thickness in systole” value is recorded as “non-significant increases”; the “body weight loss” value is “significantly decreased”; the “heart rate (change in words)” value was “increased heart rates”; the “reduction in plasma LDH release/levels” value is “more than 35%”. In test [2] (+2 h after CYP), the “nociceptive scores … vs vehicle” value was “significant decrease” and the “nociceptive threshold … vs vehicle” value is “slight increase”. Besides, in test [2] (+4 h after CYP), the “nociceptive scores … vs vehicle” value was “significant decrease” and the “nociceptive threshold … vs vehicle” value is “slight increase”. In the test on SS RBCs (D0 (start of treatment)), the “percentage of sickling cells” value was determined as 40%. Also, the “percentage of sickling cells” value with SS RBCs (setting [3]) was “less than 10%”.
As to `NC(=O)c1ccc[n+]([C@H]2O[C@H](COP(=O)([O-])O)[C@@H](O)[C@H]2O)c1` [Pro-Drug A, alpha-NMN, reference compound], in test [2] (+2 h after CYP), the “nociceptive scores … vs vehicle” value is recorded as “decrease” and the “nociceptive threshold … vs vehicle” value is “non-significant increase”. Further, in test [2] (+4 h after CYP), the “nociceptive scores … vs vehicle” value was “achieved the statistical level” and the “nociceptive threshold … vs vehicle” value was “significant increase”.
